Experimental data from ChEMBL document CHEMBL4118189, “Discovery of novel N-hydroxy-2-arylisoindoline-4-carboxamides as potent and selective inhibitors of HDAC11” (Bioorg Med Chem Lett, 2018).
Values after ≈ are worked out from the molar mass of the structure shown.

Legend:
[1] = Permeability of the compound by PAMPA; assay type: ADME; details: read-out: permeability
[2] = Intrinsic clearance in mouse liver microsomes; assay type: ADME, microsome; details: read-out: CLH
Histone deacetylase 11 [3] = biological target: T1, Histone deacetylase 11 (Homo sapiens, UniProt Q96DB2); assay: Inhibition of NanoLuc-tagged HDAC11 (unknown origin) by BRET assay
T1 sequence (Q96DB2 whole entry): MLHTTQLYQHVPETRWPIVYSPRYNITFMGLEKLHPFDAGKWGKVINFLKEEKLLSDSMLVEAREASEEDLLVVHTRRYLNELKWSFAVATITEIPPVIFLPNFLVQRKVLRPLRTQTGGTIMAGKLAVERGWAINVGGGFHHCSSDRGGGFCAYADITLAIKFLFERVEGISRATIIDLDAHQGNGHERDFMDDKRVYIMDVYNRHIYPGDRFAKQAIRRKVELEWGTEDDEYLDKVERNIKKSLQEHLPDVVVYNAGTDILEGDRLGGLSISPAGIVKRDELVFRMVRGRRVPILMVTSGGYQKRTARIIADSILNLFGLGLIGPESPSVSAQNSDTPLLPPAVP

[4] = Kinetic solubility of the compound at pH 7.4; assay type: physicochemical; details: buffer, read-out: Kinetic_solubility
Histone deacetylase 11 [5] = biological target: T1, Histone deacetylase 11; assay: Inhibition of full length recombinant human HDAC11 expressed in baculoviral expression system using FAM-RHKK as substrate by electrophoretic mobility shift assay
[6] = biological target: T2, Protein deacetylase HDAC6 (Homo sapiens, UniProt Q9UBN7); assay: Inhibition of full length recombinant human HDAC6 using fluorescent-labeled peptide as substrate by electrophoretic mobility shift assay
T2 sequence (Q9UBN7 whole entry): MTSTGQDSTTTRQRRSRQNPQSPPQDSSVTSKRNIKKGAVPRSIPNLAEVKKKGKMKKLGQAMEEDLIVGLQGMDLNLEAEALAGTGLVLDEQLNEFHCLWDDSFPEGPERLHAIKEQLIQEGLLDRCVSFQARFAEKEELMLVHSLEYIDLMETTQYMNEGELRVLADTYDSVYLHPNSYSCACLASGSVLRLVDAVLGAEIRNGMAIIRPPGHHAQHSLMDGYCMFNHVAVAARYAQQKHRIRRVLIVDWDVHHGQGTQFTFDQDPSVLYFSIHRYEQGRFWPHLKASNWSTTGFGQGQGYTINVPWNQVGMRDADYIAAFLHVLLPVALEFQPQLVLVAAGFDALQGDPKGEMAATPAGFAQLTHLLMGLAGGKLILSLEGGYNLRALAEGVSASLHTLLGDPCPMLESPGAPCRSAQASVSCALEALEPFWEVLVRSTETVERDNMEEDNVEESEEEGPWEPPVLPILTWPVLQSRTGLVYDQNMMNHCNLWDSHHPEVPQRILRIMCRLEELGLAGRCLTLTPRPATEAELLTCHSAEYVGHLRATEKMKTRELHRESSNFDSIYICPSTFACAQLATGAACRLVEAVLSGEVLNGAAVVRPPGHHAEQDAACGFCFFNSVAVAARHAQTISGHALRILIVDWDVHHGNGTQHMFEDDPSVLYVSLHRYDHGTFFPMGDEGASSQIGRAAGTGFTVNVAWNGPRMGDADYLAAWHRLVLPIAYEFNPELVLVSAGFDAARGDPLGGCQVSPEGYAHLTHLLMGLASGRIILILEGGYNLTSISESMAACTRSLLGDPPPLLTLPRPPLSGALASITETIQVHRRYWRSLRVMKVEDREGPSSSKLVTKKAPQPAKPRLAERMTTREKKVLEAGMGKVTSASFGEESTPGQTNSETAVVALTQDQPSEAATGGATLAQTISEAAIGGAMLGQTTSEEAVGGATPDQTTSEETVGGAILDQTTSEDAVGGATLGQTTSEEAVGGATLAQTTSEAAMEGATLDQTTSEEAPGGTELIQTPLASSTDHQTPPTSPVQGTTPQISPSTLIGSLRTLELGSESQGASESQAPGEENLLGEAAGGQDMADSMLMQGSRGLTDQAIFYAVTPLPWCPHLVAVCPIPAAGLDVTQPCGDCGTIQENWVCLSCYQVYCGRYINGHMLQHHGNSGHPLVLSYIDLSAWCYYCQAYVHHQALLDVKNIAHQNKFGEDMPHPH

[7] = AUClast in Balb/c nude mouse at 1 mg/kg, iv; assay type: ADME, organism-based; parameters: dose 1 mg/kg, time 0 - last, route intravenous; details: in vivo
[8] = Initial plasma concentration in Balb/c nude mouse at 1 mg/kg, iv; assay type: ADME, organism-based
[9] = Volume of distribution at steady state in Balb/c nude mouse at 1 mg/kg, iv; assay type: ADME, organism-based; details: in vivo, read-out: Vdss
[10] = Half life in Balb/c nude mouse at 1 mg/kg, iv; assay type: ADME, organism-based; details: in vivo
[11] = Clearance in Balb/c nude mouse at 1 mg/kg, iv; assay type: ADME, organism-based; details: in vivo
[12] = Half life in Balb/c nude mouse at 5 mg/kg, ip; assay type: ADME, organism-based; details: in vivo
[13] = AUClast in Balb/c nude mouse at 5 mg/kg, ip; assay type: ADME, organism-based; parameters: dose 5 mg/kg, time 0 - last, route intraperitoneal; details: in vivo
[14] = Cmax in Balb/c nude mouse at 5 mg/kg, ip; assay type: ADME, organism-based; parameters: dose 5 mg/kg, route intraperitoneal; details: in vivo
[15] = Bioavailability in Balb/c nude mouse at 5 mg/kg, ip; assay type: ADME, organism-based; details: in vivo
Histone deacetylase 9 = Histone deacetylase 9 (Homo sapiens, UniProt Q9UKV0); assay: Inhibition of full length recombinant human HDAC9 using fluorescent-labeled peptide as substrate by electrophoretic mobility shift assay
Histone deacetylase 2 = Histone deacetylase 2 (Homo sapiens, UniProt Q92769); assay: Inhibition of full length recombinant human HDAC2 using fluorescent-labeled peptide as substrate by electrophoretic mobility shift assay
Histone deacetylase 7 = biological target: T3, Histone deacetylase 7 (Homo sapiens, UniProt Q8WUI4); assay: Inhibition of full length recombinant human HDAC7 using fluorescent-labeled peptide as substrate by electrophoretic mobility shift assay
T3 sequence (Q8WUI4 whole entry): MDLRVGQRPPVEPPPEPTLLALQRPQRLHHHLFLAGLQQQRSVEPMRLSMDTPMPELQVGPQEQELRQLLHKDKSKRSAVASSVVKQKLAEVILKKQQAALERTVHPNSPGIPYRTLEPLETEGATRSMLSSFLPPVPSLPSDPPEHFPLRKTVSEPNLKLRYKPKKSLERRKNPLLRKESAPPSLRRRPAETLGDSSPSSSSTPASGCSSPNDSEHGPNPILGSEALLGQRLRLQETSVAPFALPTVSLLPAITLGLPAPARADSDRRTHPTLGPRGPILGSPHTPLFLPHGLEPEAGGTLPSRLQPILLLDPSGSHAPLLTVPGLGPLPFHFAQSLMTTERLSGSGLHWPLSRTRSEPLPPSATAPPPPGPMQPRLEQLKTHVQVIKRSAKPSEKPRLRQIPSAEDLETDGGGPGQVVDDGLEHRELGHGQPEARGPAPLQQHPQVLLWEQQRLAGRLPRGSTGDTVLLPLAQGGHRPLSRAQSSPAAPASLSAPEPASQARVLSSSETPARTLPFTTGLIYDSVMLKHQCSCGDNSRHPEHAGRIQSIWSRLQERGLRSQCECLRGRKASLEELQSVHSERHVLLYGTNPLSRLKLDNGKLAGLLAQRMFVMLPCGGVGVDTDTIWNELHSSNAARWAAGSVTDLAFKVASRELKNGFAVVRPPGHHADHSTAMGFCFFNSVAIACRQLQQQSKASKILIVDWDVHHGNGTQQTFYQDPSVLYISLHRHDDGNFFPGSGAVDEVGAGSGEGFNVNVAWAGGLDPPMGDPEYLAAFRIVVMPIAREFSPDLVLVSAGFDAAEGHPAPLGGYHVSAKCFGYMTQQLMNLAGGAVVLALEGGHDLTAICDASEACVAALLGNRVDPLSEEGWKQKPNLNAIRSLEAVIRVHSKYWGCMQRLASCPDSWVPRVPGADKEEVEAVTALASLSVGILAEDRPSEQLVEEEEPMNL

[16] = biological target: T4, Polyamine deacetylase HDAC10 (Homo sapiens, UniProt Q969S8); assay: Inhibition of full length recombinant human HDAC10 using fluorescent-labeled peptide as substrate by electrophoretic mobility shift assay
T4 sequence (Q969S8 whole entry): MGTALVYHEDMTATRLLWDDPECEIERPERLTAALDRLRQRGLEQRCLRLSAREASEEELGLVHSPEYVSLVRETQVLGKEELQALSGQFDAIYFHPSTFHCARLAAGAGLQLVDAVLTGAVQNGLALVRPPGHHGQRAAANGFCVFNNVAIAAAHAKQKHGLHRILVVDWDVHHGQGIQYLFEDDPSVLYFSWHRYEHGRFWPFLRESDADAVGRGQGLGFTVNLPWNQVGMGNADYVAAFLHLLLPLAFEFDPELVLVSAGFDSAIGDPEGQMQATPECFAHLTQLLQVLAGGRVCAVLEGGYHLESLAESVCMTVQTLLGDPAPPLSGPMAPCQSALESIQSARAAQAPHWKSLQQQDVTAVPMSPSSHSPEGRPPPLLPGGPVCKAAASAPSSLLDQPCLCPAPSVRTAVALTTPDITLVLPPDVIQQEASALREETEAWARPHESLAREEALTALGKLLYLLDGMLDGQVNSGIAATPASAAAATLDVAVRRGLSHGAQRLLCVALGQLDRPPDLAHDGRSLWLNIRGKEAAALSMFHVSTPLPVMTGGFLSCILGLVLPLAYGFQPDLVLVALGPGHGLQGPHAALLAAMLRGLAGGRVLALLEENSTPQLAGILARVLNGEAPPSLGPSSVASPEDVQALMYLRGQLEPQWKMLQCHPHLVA

Histone deacetylase 1 = Histone deacetylase 1 (Homo sapiens, UniProt Q13547); assay: Inhibition of full length recombinant human HDAC1 using fluorescent-labeled peptide as substrate by electrophoretic mobility shift assay
Histone deacetylase 3 = Histone deacetylase 3 (Homo sapiens, UniProt O15379); assay: Inhibition of full length recombinant human HDAC3 using fluorescent-labeled peptide as substrate by electrophoretic mobility shift assay
Histone deacetylase 5 = Histone deacetylase 5 (Homo sapiens, UniProt Q9UQL6); assay: Inhibition of full length recombinant human HDAC5 using fluorescent-labeled peptide as substrate by electrophoretic mobility shift assay
Sequence of Histone deacetylase 5 (Q9UQL6 whole entry): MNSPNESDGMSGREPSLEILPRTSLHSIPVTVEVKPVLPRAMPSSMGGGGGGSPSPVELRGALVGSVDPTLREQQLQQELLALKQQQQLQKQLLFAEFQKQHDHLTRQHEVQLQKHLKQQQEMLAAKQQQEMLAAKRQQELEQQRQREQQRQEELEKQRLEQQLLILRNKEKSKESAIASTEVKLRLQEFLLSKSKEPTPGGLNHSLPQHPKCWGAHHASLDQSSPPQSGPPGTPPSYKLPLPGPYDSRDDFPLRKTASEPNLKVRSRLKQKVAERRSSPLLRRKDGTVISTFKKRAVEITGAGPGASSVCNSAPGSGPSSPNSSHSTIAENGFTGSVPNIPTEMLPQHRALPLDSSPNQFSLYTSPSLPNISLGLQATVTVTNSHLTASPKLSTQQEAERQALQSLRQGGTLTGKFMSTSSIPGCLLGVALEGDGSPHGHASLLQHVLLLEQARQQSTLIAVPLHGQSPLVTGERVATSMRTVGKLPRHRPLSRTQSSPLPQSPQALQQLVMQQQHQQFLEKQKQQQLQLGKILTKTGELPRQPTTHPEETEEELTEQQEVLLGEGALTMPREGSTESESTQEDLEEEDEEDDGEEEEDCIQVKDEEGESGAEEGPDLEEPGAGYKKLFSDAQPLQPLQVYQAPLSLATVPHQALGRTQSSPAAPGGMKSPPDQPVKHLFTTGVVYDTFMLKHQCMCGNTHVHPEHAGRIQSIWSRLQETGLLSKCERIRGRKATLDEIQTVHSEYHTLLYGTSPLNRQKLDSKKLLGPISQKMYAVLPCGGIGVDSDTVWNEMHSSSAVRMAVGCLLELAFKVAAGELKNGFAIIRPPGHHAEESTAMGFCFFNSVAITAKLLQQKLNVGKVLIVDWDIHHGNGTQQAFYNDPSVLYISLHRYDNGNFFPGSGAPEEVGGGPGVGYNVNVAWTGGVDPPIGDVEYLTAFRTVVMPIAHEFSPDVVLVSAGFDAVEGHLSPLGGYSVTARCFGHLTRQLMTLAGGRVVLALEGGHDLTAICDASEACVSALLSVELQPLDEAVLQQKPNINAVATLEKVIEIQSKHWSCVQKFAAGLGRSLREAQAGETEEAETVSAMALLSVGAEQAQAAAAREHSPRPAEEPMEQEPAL

Sequence of Histone deacetylase 9 (Q9UKV0 whole entry): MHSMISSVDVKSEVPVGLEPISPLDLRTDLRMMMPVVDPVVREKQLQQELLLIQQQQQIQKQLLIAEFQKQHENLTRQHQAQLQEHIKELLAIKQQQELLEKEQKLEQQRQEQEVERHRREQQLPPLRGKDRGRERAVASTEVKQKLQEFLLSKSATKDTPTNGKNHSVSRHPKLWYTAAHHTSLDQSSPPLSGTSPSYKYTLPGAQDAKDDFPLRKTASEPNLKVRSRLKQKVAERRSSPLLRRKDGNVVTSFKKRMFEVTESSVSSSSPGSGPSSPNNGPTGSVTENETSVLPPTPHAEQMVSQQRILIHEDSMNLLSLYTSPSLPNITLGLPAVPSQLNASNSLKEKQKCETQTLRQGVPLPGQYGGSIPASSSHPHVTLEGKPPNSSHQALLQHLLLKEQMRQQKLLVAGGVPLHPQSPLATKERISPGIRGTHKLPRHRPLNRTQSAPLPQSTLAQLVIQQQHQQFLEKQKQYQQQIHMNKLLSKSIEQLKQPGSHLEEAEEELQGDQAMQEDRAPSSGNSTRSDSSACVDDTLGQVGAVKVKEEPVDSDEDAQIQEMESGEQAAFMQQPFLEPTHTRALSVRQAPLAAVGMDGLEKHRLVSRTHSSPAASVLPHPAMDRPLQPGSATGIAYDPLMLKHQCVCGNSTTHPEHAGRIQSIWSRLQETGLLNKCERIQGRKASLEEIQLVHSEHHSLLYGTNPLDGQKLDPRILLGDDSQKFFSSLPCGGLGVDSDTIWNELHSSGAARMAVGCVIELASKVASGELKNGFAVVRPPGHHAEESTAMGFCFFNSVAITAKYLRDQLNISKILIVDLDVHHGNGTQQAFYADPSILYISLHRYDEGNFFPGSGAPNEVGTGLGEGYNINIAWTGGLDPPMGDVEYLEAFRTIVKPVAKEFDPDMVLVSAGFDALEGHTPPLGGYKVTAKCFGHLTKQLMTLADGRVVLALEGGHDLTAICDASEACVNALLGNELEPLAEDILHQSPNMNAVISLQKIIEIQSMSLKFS
Sequence of Histone deacetylase 1 (Q13547 whole entry): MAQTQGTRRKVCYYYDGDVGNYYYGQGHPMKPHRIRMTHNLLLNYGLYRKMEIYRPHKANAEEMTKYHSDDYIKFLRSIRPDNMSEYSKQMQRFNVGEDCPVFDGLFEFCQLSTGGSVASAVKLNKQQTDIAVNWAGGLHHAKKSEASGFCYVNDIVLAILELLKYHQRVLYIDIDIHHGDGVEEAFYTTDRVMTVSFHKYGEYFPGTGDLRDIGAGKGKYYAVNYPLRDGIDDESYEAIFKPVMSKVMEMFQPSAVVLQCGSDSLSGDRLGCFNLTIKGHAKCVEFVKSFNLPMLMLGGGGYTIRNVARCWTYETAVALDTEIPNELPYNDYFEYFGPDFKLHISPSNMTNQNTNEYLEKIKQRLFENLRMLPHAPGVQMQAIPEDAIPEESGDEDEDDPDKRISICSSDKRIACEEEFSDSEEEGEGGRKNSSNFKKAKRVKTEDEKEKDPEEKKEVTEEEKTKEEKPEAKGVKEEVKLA
Sequence of Histone deacetylase 3 (O15379 whole entry): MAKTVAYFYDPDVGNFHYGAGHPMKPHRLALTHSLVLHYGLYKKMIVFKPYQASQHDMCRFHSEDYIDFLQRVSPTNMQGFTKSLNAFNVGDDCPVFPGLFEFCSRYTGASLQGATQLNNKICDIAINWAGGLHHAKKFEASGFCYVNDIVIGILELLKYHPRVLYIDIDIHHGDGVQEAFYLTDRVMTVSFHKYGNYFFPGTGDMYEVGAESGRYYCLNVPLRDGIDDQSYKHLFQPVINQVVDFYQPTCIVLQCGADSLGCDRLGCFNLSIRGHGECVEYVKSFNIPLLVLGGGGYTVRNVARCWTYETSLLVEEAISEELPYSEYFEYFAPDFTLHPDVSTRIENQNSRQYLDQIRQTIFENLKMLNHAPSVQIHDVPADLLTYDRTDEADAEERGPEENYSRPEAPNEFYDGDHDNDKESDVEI
Sequence of Histone deacetylase 2 (Q92769 whole entry): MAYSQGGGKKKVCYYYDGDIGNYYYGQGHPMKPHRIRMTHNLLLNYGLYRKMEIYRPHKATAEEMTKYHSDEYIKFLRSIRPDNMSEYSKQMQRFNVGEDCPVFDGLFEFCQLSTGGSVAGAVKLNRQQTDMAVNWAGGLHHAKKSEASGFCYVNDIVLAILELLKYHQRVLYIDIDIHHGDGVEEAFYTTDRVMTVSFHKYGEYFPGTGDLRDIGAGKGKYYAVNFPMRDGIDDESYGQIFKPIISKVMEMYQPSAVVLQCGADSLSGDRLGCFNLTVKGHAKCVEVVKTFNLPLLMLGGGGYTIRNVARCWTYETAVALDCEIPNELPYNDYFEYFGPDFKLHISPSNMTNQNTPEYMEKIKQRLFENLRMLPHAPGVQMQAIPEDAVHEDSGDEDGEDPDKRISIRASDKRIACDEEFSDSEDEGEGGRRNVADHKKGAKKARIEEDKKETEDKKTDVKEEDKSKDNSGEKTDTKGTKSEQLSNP

SMILES | Papp [1] | microsomal CLint [2] | solubility kinetic [4] | IC50 (Histone deacetylase 11 [5]) | IC50 [6] | further results
CC1(C)c2cccc(C(=O)NO)c2CN1c1ncc(C(F)(F)F)cn1 | 18 ×10⁻⁶ cm/s | 21 µL/min/mg | 32 µM (≈ 11.3 µg/mL) | 5 nM |  | IC50 (Histone deacetylase 11 [3]): 85 nM
O=C(NO)c1cccc2c1CN(c1ccc3ccccc3n1)C2 |  | 92 µL/min/mg |  | 26 nM |  | 
O=C(NO)c1cccc2c1CN(c1nc3ccc(C(F)(F)F)cc3[nH]1)C2 |  | 140 µL/min/mg |  | 2 nM |  | 
CC1(C)c2cccc(C(=O)NO)c2CN1c1ccc(C(F)(F)F)cn1 | 12 ×10⁻⁶ cm/s | 28 µL/min/mg | 8 µM (≈ 2.81 µg/mL) | 6 nM |  | IC50 (Histone deacetylase 11 [3]): 130 nM
CC1(C)c2cccc(C(=O)NO)c2CN1c1cnc(C(F)(F)F)nc1 |  | 7 µL/min/mg | 82 µM (≈ 28.9 µg/mL) | 27 nM |  | IC50 (Histone deacetylase 11 [3]): 270 nM
CC1(C)c2cccc(C(=O)NO)c2CN1c1nc2ncccc2o1 | 0.7 ×10⁻⁶ cm/s | 7 µL/min/mg | 78 µM (≈ 25.3 µg/mL) | 2 nM |  | IC50 (Histone deacetylase 11 [3]): 20 nM
O=C(NO)c1cccc2c1CN(c1nc3ccccc3[nH]1)CC2 |  |  |  | 4600 nM | 82 nM | 
O=C(NO)c1cccc2c1CN(c1nc3ccccc3s1)C2 |  | 323 µL/min/mg |  | 35 nM |  | 
O=C(NO)c1cccc2c1CCN(c1nc3ccccc3[nH]1)C2 |  | < 7 µL/min/mg |  | 1200 nM | > 10000 nM | 
O=C(NO)c1cccc2c1CN(c1ccc(C(F)(F)F)cn1)C2 |  | 81 µL/min/mg |  | 7 nM |  | 
O=C(NO)c1ccc2c(c1)CN(c1nc3ccccc3[nH]1)CC2 |  |  |  | 2100 nM | 4 nM | AUC(0-t) [7]: 1 µM·h; C0 [8]: 3.5 µM; Vd [9]: 18 L/kg; half-life [10]: 9.4 h; clearance [11]: 42 mL/min/kg
O=C(NO)c1cccc2c1CN(c1nc3ccccc3[nH]1)C2 |  | 17 µL/min/mg |  | 170 nM | > 10000 nM | half-life [12]: 10.2 h; AUC(0-t) [13]: 3.8 µM·h; Cmax [14]: 4.2 µM; bioavailability [15]: 81%
CC1(C)c2cccc(C(=O)NO)c2CN1c1ccc(C(F)(F)F)nc1 | 8 ×10⁻⁶ cm/s | 12 µL/min/mg | 51 µM (≈ 17.9 µg/mL) | 3 nM |  | IC50 (Histone deacetylase 11 [3]): 12 nM
CC1(C)c2cccc(C(=O)NO)c2CN1c1nc2cc(C(F)(F)F)ccc2o1 | 7 ×10⁻⁶ cm/s | 10 µL/min/mg | 4 µM (≈ 1.57 µg/mL) | 1 nM |  | 
O=C(NO)c1cccc2c1CCN(c1nc3ccccc3[nH]1)CC2 |  | 161 µL/min/mg |  | 30 nM | 2800 nM | 
CC1(C)c2cccc(C(=O)NO)c2CN1c1nc2ccc(C(F)(F)F)cc2[nH]1 | 0.1 ×10⁻⁶ cm/s | 12 µL/min/mg | 51 µM (≈ 19.9 µg/mL) | 2 nM |  | 
O=C(NO)c1ccc2c(c1)CCN(c1nc3ccccc3[nH]1)C2 |  |  |  | > 10000 nM | 2 nM | 
Cc1nc(N2Cc3cccc(C(=O)NO)c3C2)[nH]c1C |  | 88 µL/min/mg |  | 2300 nM |  | 
CC1(C)c2cccc(C(=O)NO)c2CN1c1cnc(C(F)(F)F)cn1 | 13 ×10⁻⁶ cm/s | 22 µL/min/mg | 31 µM (≈ 10.9 µg/mL) |  | > 10000 nM | IC50 (Histone deacetylase 9): > 10000 nM; IC50 (Histone deacetylase 2): > 10000 nM; IC50 (Histone deacetylase 7): > 10000 nM; IC50 [16]: > 10000 nM; IC50 (Histone deacetylase 1): > 10000 nM; IC50 (Histone deacetylase 3): > 10000 nM; IC50 (Histone deacetylase 5): > 10000 nM
O=C(NO)c1cccc2c1CN(c1nc3ccccc3o1)C2 |  | 313 µL/min/mg |  | 7 nM |  | 
O=C(NO)c1cccc2c1CN(C1=NC3CCCCC3N1)C2 (stereo unspecified) |  | 317 µL/min/mg |  | 300 nM |  | 
